Laboratory results published in the supplement of paper PMC10307832.

What was measured:
Assay in all cases: relative viability (nuclei count vs DMSO), 5 days (fraction); higher = more cells survive
Bemcentinib + Tozasertib = compound: Nc1nc(Nc2ccc3c(c2)CC[C@@H](N2CCCC2)CC3)nn1-c1cc2c(nn1)-c1ccccc1CCC2 [Bemcentinib] + Cc1cc(Nc2cc(N3CCN(C)CC3)nc(Sc3ccc(NC(=O)C4CC4)cc3)n2)n[nH]1 [Tozasertib] (partner 0.1 µM)
In short: (§1)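 A single step with final 0.05% Triton X-100, 1% formaldehyde and 1 ug/ml Hoechst fixed the cells and stained nuclei 5 days after treatment. Lung cancer cell lines in 1536-well plates had been treated by pin tool the day after seeding with one drug alone or a fixed anchor-drug dose plus five library-drug doses (not always all listed) in √10 steps, and nuclei were counted on 4× images. Relative viability is the ratio of nuclei in treated wells to nuclei in vehicle wells, taken as the median of duplicate plates.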

Bemcentinib + Linsitinib = compound: Nc1nc(Nc2ccc3c(c2)CC[C@@H](N2CCCC2)CC3)nn1-c1cc2c(nn1)-c1ccccc1CCC2 [Bemcentinib] + C[C@]1(O)C[C@@H](c2nc(-c3ccc4ccc(-c5ccccc5)nc4c3)c3c(N)nccn32)C1 [Linsitinib] (partner 1 µM)
In short: as §1

[1] = compound: CC1=CC=C(C=C1)C(=O)CN2C3=C(CCCC3)SC2=N [Pifithrin_alpha] + C[C@@H](Oc1cc(-c2cnn(C3CCNCC3)c2)cnc1N)c1c(Cl)ccc(F)c1Cl [Crizotinib] (partner 1 µM)
In short: as §1

Axitinib + Lapatinib = compound: CNC(=O)c1ccccc1Sc1ccc2c(/C=C/c3ccccn3)n[nH]c2c1 [Axitinib] + CS(=O)(=O)CCNCc1ccc(-c2ccc3ncnc(Nc4ccc(OCc5cccc(F)c5)c(Cl)c4)c3c2)o1 [Lapatinib] (partner 2 µM)
In short: as §1

Cell Line	relative viability (Bemcentinib + Tozasertib; first compound 0.04 µM)	relative viability (Bemcentinib + Tozasertib; first compound 0.1265 µM)	relative viability (Bemcentinib + Tozasertib; first compound 0.4 µM)	relative viability (Bemcentinib + Tozasertib; first compound 1.265 µM)	relative viability (Bemcentinib + Tozasertib; first compound 4 µM)	relative viability (Bemcentinib + Linsitinib; first compound 0.04 µM)	relative viability (Bemcentinib + Linsitinib; first compound 0.1265 µM)	relative viability (Bemcentinib + Linsitinib; first compound 0.4 µM)	relative viability (Bemcentinib + Linsitinib; first compound 1.265 µM)	relative viability (Bemcentinib + Linsitinib; first compound 4 µM)	relative viability ([1]; first compound 1 µM)	relative viability ([1]; first compound 3.162 µM)	relative viability ([1]; first compound 10 µM)	relative viability ([1]; first compound 31.62 µM)	relative viability ([1]; first compound 100 µM)	relative viability (Axitinib + Lapatinib; first compound 0.005 µM)	relative viability (Axitinib + Lapatinib; first compound 0.01581 µM)	relative viability (Axitinib + Lapatinib; first compound 0.05 µM)	relative viability (Axitinib + Lapatinib; first compound 0.1581 µM)	relative viability (Axitinib + Lapatinib; first compound 0.5 µM)
H3255	0.566	0.678	0.619	0.782	0.655	0.89	1.22	1.04	1.02	0.888	0.762	0.948	0.826	0.469	0.656	0.272	0.241	0.244	0.263	0.239
HARA	0.12	0.139	0.106	0.102	0.102	1.01	1.07	1.01	0.994	1.05	1.26	1.11	1.19	0.791	1.24	0.63	0.593	0.718	0.621	0.602
HCC-15	0.381	0.488	0.401	0.365	0.392	0.828	0.983	0.923	0.904	0.93	0.921	1.05	0.755	0.544	0.861	0.884	0.872	0.831	0.836	0.848
HCC-44	0.913	1.46	0.872	0.956	0.888	0.702	0.74	0.736	0.714	0.771	0.816	0.742	0.647	0.515	0.65	1.08	1.02	1.01	1.09	1.01
IA-LM						0.661	0.962	0.654	0.697	0.713	0.652	0.622	0.705	0.463	0.433	0.83	0.884	0.781	0.747	0.788
LCLC-103H	0.442	0.484	0.539	0.478	0.474	1.17	1.09	1.11	1.27	1.22	1.06	1.04	1.01	0.897	1.07					
NCI-H441	0.733	0.847	0.781	0.649	0.611	0.525	0.702	0.76	0.496	0.581	0.718	0.739	0.806	0.56	0.826					
NCI-H522	0.561	0.598	0.638	0.62	0.538															
NCI-H1299						1.01	1.04	0.985	1.07	1.09	0.997	0.992	1.05	0.76	0.897	0.956	0.993	0.96	0.97	1.02
NCI-H1395	0.759	0.763	0.782	0.739	0.753	1.06	1.21	1.01	1.48	0.962						1.31	0.887	1.12	0.792	0.922
NCI-H1563						1.24	1.15	1.21	1.15	1.19	0.907	0.846	0.714	0.832	0.731	0.956	0.85	0.931	0.863	0.694
NCI-H1623	0.427	0.438	0.455	0.461	0.442															
NCI-H1648	0.571	0.424	0.584	0.391	0.49															
NCI-H1650	0.386	0.382	0.44	0.288	0.373						0.979	0.912	0.936	0.648	0.792	0.928	0.532	0.884	0.715	0.818
NCI-H1703						0.675	0.776	0.798	0.638	0.746	0.577	0.531	0.803	0.455	1.05	0.848	0.423	0.274	0.273	0.441
NCI-H1792						0.539	0.441	0.676	0.645	0.556	0.869	0.821	0.798	0.612	0.573	0.921	0.834	1.01	0.876	0.653
NCI-H1793	0.313	0.371	0.314		0.371	0.662	1.09	0.81	1.07	0.992						0.768	0.609	1.17	0.571	0.526
NCI-H2170	0.73	0.764	0.763	0.658	0.644						1.3	1.32	1.24	0.96	1.19	0.269	0.257	0.277	0.256	0.257
NCI-H2342	0.574	0.429	0.492	0.464	0.516															
SW 900	0.458	0.807	0.54	0.611	0.529															
